Entries after “also recorded” stand apart in the source; their conditions may differ.
How the values were obtained:
[1] = tested on: multipotent mesenchymal cells such as M2-10B4 (M2) marrow stromal cells and C3H10T1/2 embryonic fibroblasts; settings: Kha et al. J Bone Miner Res 19:830-840, 2004; cited from earlier work
[2] = tested on: Mesenchymal stem cells; settings: general statement, no experiment described; cited from earlier work
[3] = tested on: rat spines (posterolateral space, L3-L5); assay: posterolateral spinal fusion in rat two-level spine model; assay type: in vivo; settings: for bone growth on radiographs: 4-week and 8-week timepoints; for fusion by manual palpation of the spine segments (in words): 8 weeks; for fusion observed in rat spines (manual palpation): matrix of Oxy133, collagen and ceramic wetted with sterile water, two implants bilaterally, 8-week sacrifice, 5/5 spines
Description: FIG. 6 illustrates uses of a formulation of malleable implants having 20 mg of Oxy133 on each side of the implant, in accordance with the malleable implants described herein. […] A dry composition of a matrix containing Oxy133, collagen and ceramic as described herein was prepared and wetted with sterile water to be implanted in rat spines as shown in FIG. 6. The wetted matrix was cut in half with a razor blade to yield two halves. The two implants were molded into cylindrical shapes prior to insertion and were positioned bilaterally in the posterolateral space of each test subject. Each implant contained 20 mg Oxy133. Radiographs were taken roughly 10 minutes after the procedure, 4 weeks after the procedure, and 8 weeks after the procedure. […] Fusion was tested at 8-week sacrifice by manual palpation. […] A dry composition of a matrix containing Oxy133, collagen and ceramic as described herein was prepared and wetted with sterile water to be implanted in rat spines as shown in FIG. 6. The wetted matrix was cut in half with a razor blade to yield two halves. The two implants were molded into cylindrical shapes prior to insertion and were positioned bilaterally in the posterolateral space of each test subject. Each implant contained 125 mg Oxy133. Radiographs were taken roughly 10 minutes after the procedure, 4 weeks after the procedure, and 8 weeks after the procedure. […] Fusion was tested at 8-week sacrifice by manual palpation.

## CC(C)CC[C@H](O)[C@@H](C)[C@H]1CC[C@H]2[C@@H]3CC=C4C[C@@H](O)CC[C@]4(C)[C@H]3CC[C@]12C [22(S)-hydroxycholesterol]
[1]
  osteogenic differentiation: induce osteogenic differentiation

## CCCCCC[C@](C)(O)[C@H]1CC[C@H]2[C@@H]3C[C@H](O)[C@H]4C[C@@H](O)CC[C@]4(C)[C@H]3CC[C@@]21C [Oxy133, (3S,5S,6S,8R,9S,10R,13S,14S,17S)-17-((S)-2-hydroxyoctan-2-yl)-10,13-dimethylhexadecahydro-1H-cyclopenta[α]phenanthrene-3,6-diol]
[2]
  osteoblast differentiation: increased osteoblast differentiation
[3]; implants with 20 mg Oxy133 each
  bone growth on radiographs: promoted bridging bone across the transverse processes of L3-L5; also recorded: Bone growth in rat test subjects can be seen
[3]; implants with 20 mg Oxy133 on each side
  fusion by manual palpation of the spine segments (in words): fusion was confirmed
[3]; implants with 125 mg Oxy133 each
  bone growth on radiographs: promoted bridging bone across the transverse processes of L3-L5; also recorded: Bone growth in rat test subjects can be seen
[3]; implants with 125 mg Oxy133 on each side
  fusion by manual palpation of the spine segments (in words): fusion was confirmed
[3]; each 20 mg Oxy133
  fusion observed in rat spines (manual palpation): 100%
[3]; each 125 mg Oxy133
  fusion observed in rat spines (manual palpation): 100%

## CC(C)CC[C@@H](O)[C@@H](C)[C@H]1CC[C@H]2[C@@H]3CC=C4C[C@@H](O)CC[C@]4(C)[C@H]3CC[C@]12C [22(R)-hydroxycholesterol]
[1]
  osteogenic differentiation: induce osteogenic differentiation

## CC(C)CCC[C@](C)(O)[C@H]1CC[C@H]2[C@@H]3CC=C4C[C@@H](O)CC[C@]4(C)[C@H]3CC[C@@]21C [20(S)-hydroxycholesterol]
[1]
  osteogenic differentiation: induce osteogenic differentiation
